# From publication PMC5519634, “Effects of 4(1H)-quinolinone derivative, a novel non-nucleotide allosteric purinergic P2Y2 agonist, on cardiomyocytes in neonatal rats” (Scientific Reports, 2017)
# Tests used:
# [1] = system: empty vector-transfected parental 1321N1 cells; test: Ca2+ mobilization in empty vector-transfected parental 1321N1 cells; assay type: cell-based, human; settings: 10 μM; data not shown
# [2] = system: Nr4a1, Nr4a2, Nr4a3, c-fos mRNA in NRCMs; test: mRNA expression analysis of Nr4a1, Nr4a2, Nr4a3 and c-fos in NRCMs; assay type: cell-based, rat; settings: for induction of Nr4a1 mRNA at 2 h versus isoproterenol alone: 30 μM Compound 89 or 100 μM ATP in the presence of 10 μM isoproterenol
# Protocol: Neonatal rat cardiomyocytes were seeded in a collagen I-coated 96-well plate, then cultured and maintained for a week before the ligand stimulation assay. […] After stimulation, cDNA samples were synthesized from lysates using TaqMan Gene Expression Cells-to-Ct kits (Thermo Fisher Scientific) according to the manufacturer’s instructions, followed by quantitative real-time polymerase chain reaction analysis using a Prism 7900HT sequence detector (Thermo Fisher Scientific). Thermal cycling parameters were 2 min at 50 °C and 10 min at 95 °C, followed by 40 cycles at 95 °C for 15 sec and 60 °C for 1 min. The mRNA levels were analysed with the comparative Ct method (2^−ΔΔCt) using Rplp0 as the housekeeping gene. The TaqMan Gene Expression assays (Thermo Fisher Scientific) used herein were as follows: Rn01533237_m1 (Nr4a1), Rn00570936_m1 (Nr4a2), Rn01354012_m1 (Nr4a3), Rn02396759_m1 (c-fos), and Rn03302271_gH (Rplp0).
# [3] = system: neonatal rat cardiomyocytes (NRCMs); test: Isoproterenol-induced cardiac hypertrophy in NRCMs; assay type: cell-based; settings: 10 μM isoproterenol
# Protocol: Neonatal rat cardiomyocytes were seeded in a 96-well collagen I plate at a density of 5000 cells/well. They were incubated overnight and then transferred to a serum-free medium for one day. Next, the cells were treated with the indicated concentrations of compounds and 10 μM isoproterenol, and then incubated for 2 days. To quantify cardiomyocyte hypertrophy via filamentous actin staining, NRCMs were fixed with 4% paraformaldehyde (Wako) and permeabilized with 0.1% Triton X-100 (MP Biomedicals, France), followed by blocking with 1% bovine serum albumin (Wako) and staining with 2 μM phalloidin–fluorescein isothiocyanate (phalloidin-FITC; Sigma-Aldrich, Japan) and 10 μM Hoechst 33258 (Dojindo). Quantification of FITC-fluorescence intensity and cell number was performed using an IN Cell Analyzer 6000 (GE Healthcare Japan). The signals from obtained images were quantitated by means of a customized image analysis algorithm using the IN Cell Developer Toolbox (GE Healthcare Japan). Hypertrophic scores were calculated as the product of FITC-fluorescence intensity and cell area per cell as programmed by GE Healthcare technical support experts.
# [4] = target: T1, P2Y2 in neonatal rat cardiomyocytes (NRCMs) (Rattus norvegicus, UniProt P41232); test: cell-based
# β-adrenergic receptor = test: cAMP signalling in parental 1321N1 cells; assay type: cell-based, human
# human P2Y1 receptor = target: T2, human P2Y1 receptor (Homo sapiens, UniProt P47900); test: FLIPR Ca2+ mobilization assay in transiently hP2Y1-expressing 1321N1 cells; assay type: cell-based; settings: at up to 30 µM
# T2 construct: expressed in transfected cells; host or cells: 1321N1 human astrocytoma cells, pcDNA3.1(+) plasmid, transient
# human P2Y4 receptor = target: T3, human P2Y4 receptor (Homo sapiens, UniProt P51582); test: FLIPR Ca2+ mobilization assay in transiently hP2Y4-expressing 1321N1 cells; assay type: cell-based; settings: at up to 30 µM
# T3 construct: expressed in transfected cells; host or cells: 1321N1 human astrocytoma cells, pcDNA3.1(+) plasmid, transient
# human P2Y11 receptor = target: T4, human P2Y11 receptor (Homo sapiens, UniProt Q96G91); test: FLIPR Ca2+ mobilization assay in transiently hP2Y11-expressing 1321N1 cells; assay type: cell-based; settings: at up to 30 µM
# T4 construct: expressed in transfected cells; host or cells: 1321N1 human astrocytoma cells, pcDNA3.1(+) plasmid, transient
# T4 sequence (Q96G91 1-374): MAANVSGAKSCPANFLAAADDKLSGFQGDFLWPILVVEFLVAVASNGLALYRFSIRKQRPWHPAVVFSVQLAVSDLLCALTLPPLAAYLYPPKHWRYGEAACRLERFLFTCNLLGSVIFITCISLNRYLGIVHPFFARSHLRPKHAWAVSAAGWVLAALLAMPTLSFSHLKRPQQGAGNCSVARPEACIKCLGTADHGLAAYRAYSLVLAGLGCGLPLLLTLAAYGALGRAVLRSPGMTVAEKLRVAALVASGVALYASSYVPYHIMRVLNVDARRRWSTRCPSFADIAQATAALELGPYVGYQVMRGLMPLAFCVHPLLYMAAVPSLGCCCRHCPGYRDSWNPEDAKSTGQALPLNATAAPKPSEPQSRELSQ
# human P2Y6 receptor = target: T5, human P2Y6 receptor (Homo sapiens, UniProt Q15077); test: FLIPR Ca2+ mobilization assay in transiently hP2Y6-expressing 1321N1 cells; assay type: cell-based; settings: at up to 30 µM
# T5 construct: expressed in transfected cells; host or cells: 1321N1 human astrocytoma cells, pcDNA3.1(+) plasmid, transient
# mouse P2Y2 receptors = target: T6, mouse P2Y2 receptors (Mus musculus, UniProt P35383); test: FLIPR Ca2+ mobilization assay in mP2Y2-1321N1 cells; assay type: cell-based
# T6 construct: expressed in transfected cells
# [5] = target: T1, P2Y2 in neonatal rat cardiomyocytes (NRCMs); settings: without ATP
# human P2Y2 receptors = human P2Y2 receptors (Homo sapiens, UniProt P41231); test: cell-based
# human P2Y12 receptor = target: T7, human P2Y12 receptor (Homo sapiens, UniProt Q9H244); test: cAMP accumulation assay in hP2Y12-1321N1 cells; assay type: cell-based; settings: at up to 30 µM
# T7 construct: expressed in transfected cells
# [6] = read-out: extrapolated maximum efficacy with respect to 10 μM ATP
# T1 sequence (P41232 whole entry): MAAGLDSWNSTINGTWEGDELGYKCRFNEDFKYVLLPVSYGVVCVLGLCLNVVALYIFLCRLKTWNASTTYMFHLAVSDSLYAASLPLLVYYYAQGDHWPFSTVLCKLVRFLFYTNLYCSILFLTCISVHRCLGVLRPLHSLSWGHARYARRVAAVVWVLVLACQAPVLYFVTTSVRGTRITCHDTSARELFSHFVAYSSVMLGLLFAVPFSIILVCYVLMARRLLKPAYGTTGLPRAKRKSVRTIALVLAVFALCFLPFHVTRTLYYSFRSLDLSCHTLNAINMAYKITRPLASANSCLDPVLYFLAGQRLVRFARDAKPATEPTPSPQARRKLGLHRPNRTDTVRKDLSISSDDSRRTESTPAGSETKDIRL
# Sequence of human P2Y2 receptors (P41231 whole entry): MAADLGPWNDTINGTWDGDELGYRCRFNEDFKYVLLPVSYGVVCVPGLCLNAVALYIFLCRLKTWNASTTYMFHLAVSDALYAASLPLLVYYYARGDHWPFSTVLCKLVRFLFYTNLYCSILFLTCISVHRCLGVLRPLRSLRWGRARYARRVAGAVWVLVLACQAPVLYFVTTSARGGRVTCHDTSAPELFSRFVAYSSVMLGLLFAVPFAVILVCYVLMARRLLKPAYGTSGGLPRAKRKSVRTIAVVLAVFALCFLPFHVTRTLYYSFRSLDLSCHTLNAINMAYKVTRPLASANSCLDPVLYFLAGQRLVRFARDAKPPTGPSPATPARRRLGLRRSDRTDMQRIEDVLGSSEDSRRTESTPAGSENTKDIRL
# T6 sequence (P35383 whole entry): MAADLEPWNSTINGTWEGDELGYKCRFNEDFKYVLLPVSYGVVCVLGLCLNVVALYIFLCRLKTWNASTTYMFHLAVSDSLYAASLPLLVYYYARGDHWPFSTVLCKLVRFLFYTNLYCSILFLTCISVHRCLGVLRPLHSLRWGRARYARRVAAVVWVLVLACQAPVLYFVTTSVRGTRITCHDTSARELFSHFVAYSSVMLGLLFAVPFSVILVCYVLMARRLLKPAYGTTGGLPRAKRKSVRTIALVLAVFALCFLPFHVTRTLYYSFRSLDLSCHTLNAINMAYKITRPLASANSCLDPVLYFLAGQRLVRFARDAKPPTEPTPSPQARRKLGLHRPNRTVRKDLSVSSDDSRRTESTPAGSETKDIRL
# T3 sequence (P51582 whole entry): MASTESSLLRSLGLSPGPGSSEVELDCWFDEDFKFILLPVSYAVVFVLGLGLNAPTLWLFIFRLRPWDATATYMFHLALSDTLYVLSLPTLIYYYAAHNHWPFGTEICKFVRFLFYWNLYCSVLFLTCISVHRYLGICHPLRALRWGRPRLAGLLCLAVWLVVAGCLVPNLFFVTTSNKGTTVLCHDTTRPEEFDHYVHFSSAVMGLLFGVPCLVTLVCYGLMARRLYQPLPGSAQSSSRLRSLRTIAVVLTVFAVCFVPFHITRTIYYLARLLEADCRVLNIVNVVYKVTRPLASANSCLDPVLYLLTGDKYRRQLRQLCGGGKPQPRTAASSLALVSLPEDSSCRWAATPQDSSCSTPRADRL
# T7 sequence (Q9H244 whole entry): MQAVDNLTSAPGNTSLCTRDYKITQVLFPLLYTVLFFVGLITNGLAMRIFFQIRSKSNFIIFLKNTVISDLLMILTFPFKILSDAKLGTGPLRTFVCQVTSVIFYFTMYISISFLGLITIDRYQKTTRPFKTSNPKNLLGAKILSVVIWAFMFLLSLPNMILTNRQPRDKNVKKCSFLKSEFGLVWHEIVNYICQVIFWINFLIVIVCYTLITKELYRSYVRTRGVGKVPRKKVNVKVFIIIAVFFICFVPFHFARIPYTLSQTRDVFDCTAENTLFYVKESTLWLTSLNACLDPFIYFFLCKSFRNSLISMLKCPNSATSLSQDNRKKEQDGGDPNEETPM
# T2 sequence (P47900 whole entry): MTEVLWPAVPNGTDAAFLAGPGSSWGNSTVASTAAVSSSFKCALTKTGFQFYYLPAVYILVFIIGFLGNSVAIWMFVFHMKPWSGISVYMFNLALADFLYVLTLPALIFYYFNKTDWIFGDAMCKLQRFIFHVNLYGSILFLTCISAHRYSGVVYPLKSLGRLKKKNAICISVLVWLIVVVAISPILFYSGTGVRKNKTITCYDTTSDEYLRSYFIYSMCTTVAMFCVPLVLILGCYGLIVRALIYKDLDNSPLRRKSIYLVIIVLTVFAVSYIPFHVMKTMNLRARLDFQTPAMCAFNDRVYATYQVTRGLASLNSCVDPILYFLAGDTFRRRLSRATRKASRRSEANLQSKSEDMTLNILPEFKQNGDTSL
# T5 sequence (Q15077 whole entry): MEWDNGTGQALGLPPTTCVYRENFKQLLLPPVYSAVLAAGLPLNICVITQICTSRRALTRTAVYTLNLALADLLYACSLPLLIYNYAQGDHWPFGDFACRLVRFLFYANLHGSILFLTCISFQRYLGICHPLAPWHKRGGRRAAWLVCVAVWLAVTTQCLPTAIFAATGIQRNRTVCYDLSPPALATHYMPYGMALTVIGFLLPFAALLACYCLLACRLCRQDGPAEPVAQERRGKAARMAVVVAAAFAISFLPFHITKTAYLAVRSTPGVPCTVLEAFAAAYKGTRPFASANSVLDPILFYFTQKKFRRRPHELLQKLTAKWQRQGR
smiles,measurement,setting,value
"Nc1ncnc2c1ncn2[C@@H]1O[C@H](COP(=O)(O)OP(=O)(O)O)[C@@H](O)[C@H]1O [ADP, adenosine-5′-diphosphate]",activity in empty vector-transfected parental 1321N1 cells,[1],lacked activity
"Nc1ncnc2c1ncn2[C@@H]1O[C@H](COP(=O)(O)OP(=O)(O)OP(=O)(O)O)[C@@H](O)[C@H]1O [ATP, adenosine-5′-triphosphate, reference compound]",expression of all Nr4a genes,"[2]; 10 μM, steadily after 30 min",increased
same,induction of Nr4a1 mRNA at 2 h versus isoproterenol alone,[2],did not affect induction
same,effect on isoproterenol-induced cardiac hypertrophy (hypertrophic score),"[3]; 10 and 100 μM, P = 0.568",no significant effects
same,activity in empty vector-transfected parental 1321N1 cells,[1],lacked activity
same,EC50,"[4]; EC50 for ATP, NRCMs, in the absence of Compound 89",2600 nM
"CCN(Cc1ccc(F)cc1)Cc1cc(=O)c2ccc(C)c(C)c2[nH]1 [Compound 89, 2-((ethyl(4-fluorobenzyl)amino)methyl)-7,8-dimethylquinolin-4(1H)-one]",effect on β-adrenergic receptor-mediated cAMP signalling,β-adrenergic receptor,does not affect
same,induction of Nr4a1 mRNA at 2 h versus isoproterenol alone,[2],greater
same,effect on ATP-induced gene expression changes,"[2]; co-administration at 10 and 30 μM with ATP, concentration-dependent",enhanced
same,"changes in gene expression (Nr4a1, Nr4a2, Nr4a3, c-fos) by compound alone","[2]; without ATP, up to 90 min",did not induce any changes in gene expression
same,agonistic activity against hP2Y1,human P2Y1 receptor,lacked agonistic activity
same,attenuation of hypertrophy after 48 h of treatment,[3]; 30 μM,Complete attenuation
same,effect on isoproterenol-induced cardiac hypertrophy (hypertrophic score),"[3]; 1 to 30 μM, concentration-dependent",attenuated
same,agonistic activity against hP2Y4,human P2Y4 receptor,lacked agonistic activity
same,agonistic activity against hP2Y11,human P2Y11 receptor,lacked agonistic activity
same,agonistic activity against hP2Y6,human P2Y6 receptor,lacked agonistic activity
same,Emax,mouse P2Y2 receptors; [6],50.9%
same,EC50,"mouse P2Y2 receptors; stably-expressing mP2Y2-1321N1 cells (Fig. 1b), read-out: EC50 (potency), agonistic activity",2700 nM
same,intrinsic agonistic activity,[5],no intrinsic agonistic activity
same,EC50,"human P2Y2 receptors; EC50 (potency), agonistic activity, transiently-expressing hP2Y2-1321N1 cells (Fig. 1b)",10500 nM
same,EC50,"human P2Y2 receptors; EC50 for Compound 89, hP2Y2 stably-expressing 1321N1 cells, in the absence of ATP",53900 nM
same,EC50,"human P2Y2 receptors; EC50 for Compound 89, hP2Y2 stably-expressing 1321N1 cells, in the presence of 10 nM ATP",2500 nM
same,Emax,human P2Y2 receptors; [6],65.8%
same,agonistic activity against hP2Y12,human P2Y12 receptor,lacked agonistic activity
same,EC50,"[4]; EC50 for Compound 89, NRCMs, in the presence of 1 μM ATP",1300 nM
same,EC50,"[4]; EC50 for Compound 89, NRCMs, in the presence of 30 μM ATP",110 nM
"O=c1ccn([C@@H]2O[C@H](COP(=O)(O)OP(=O)(O)O)[C@@H](O)[C@H]2O)c(=O)[nH]1 [UDP, uridine-5′-diphosphate]",activity in empty vector-transfected parental 1321N1 cells,[1],lacked activity
"O=c1ccn([C@@H]2O[C@H](COP(=O)(O)OP(=O)(O)OP(=O)(O)O)[C@@H](O)[C@H]2O)c(=O)[nH]1 [UTP, uridine-5′-triphosphate]",activity in empty vector-transfected parental 1321N1 cells,[1],lacked activity
"CC(C)NCC(O)c1ccc(O)c(O)c1 (centres unmarked) [isoproterenol, reference compound]",induction of Nr4a1 mRNA at 2 h versus vehicle,"[2]; 10 μM isoproterenol, P = 5 × 10^−4",significantly induced
